Data on seven molecules can be found in patent publication US12570608B2, “Compound derived from quinoline, use of a compound, composition and method for the treatment or prophylaxis of a condition caused by a blood parasite” (FUNDÃÇAO OSWALDO CRUZ, priority 2019, dated 2026).

Structures are written as SMILES. Several values for one entry are separate records, joined by “and”; a condition that tells them apart may be missing. Equal values may be shown once. Read-outs that look alike come from different tables or passages of the source. A value given as a limit tells only on which side of the number the result lay.

In data set [1] the test system is P. falciparum 3D7. The experiment in a line: Antiplasmodial SYBR Green assay, CQ-sensitive strain. The settings on record: for IC50: Plasmodium falciparum; for Selectivity index 3D7: ratio between MDL50 and IC50, 3D7. The data set is classed as cell-based, Plasmodium falciparum. As to the method:
Each test was performed in triplicate in at least two different experiments.
Briefly, plates were centrifuged at 700 g for 5 min in room temperature to remove medium, washed with PBS, and incubated for 30 min with lysis buffer solution and SYBR Green I DNA dye (1:20000). The fluorescence of the uninfected erythrocytes was considered as background.
(§1) The half maximum inhibitory concentration of the drug (IC50) was estimated by curve fitting using software and compared with the parasite growth in the compound-free medium.

Data set [2] relates to P. falciparum K1. The data set can be described thus: Antiplasmodial SYBR Green assay, multiresistant strain. In kind it is cell-based, Plasmodium falciparum. The settings on record: for IC50: Plasmodium falciparum; for Selectivity index K1: ratio between MDL50 and IC50, K1; for Antiplasmodial activity: K1 resistant strain, highest dose 10 μM. The procedure:
Freshly synchronized sorbitol ring stages (Lambros and Vanderberg, 1979) were immediately incubated with the test compounds at various concentrations (10-0.152 μM or 1.0-0.0152 μM) previously solubilized in 0.05% dimethyl sulfoxide (DMSO) (v/v). Each test was performed in triplicate in at least two different experiments.
The antiplasmodial activity of the compounds was measured by DNA labeling assay using the fluorescent probe SYBR Green (Smilkstein et al., 2004).
Briefly, plates were centrifuged at 700 g for 5 min in room temperature to remove medium, washed with PBS, and incubated for 30 min with lysis buffer solution and SYBR Green I DNA dye (1:20000). The fluorescence of the uninfected erythrocytes was considered as background. Fluorescence was measured in a fluorimeter at 485/535 nm.
as §1

Data set [3] has as its system P. berghei NK65. The experiment in a line: P. berghei suppression test in mice. The settings on record: for Survival of mice compared to the untreated control: Mann-Whitney test; for Parasitemia % reduction day 5 / Parasitemia % reduction day 7 / Parasitemia % reduction day 9 / Parasitemia % reduction day 11 / Parasitemia % reduction day 13 / Parasitemia % reduction day 15: three days, relative to untreated mice. The data set is classed as in vivo. The procedure:
A P. berghei NK65 strain was obtained as a donation from New York University and maintained through weekly blood draws.
On days 5 to 15 after parasite inoculation, blood was taken from the tail of each mouse and used to prepare thin smears that were fixed with methanol, stained with Giemsa and examined microscopically (1000×) to determine parasitemia.
Parasite growth inhibition was determined relative to parasitemia in the untreated mice, considered to be 100% parasite growth. […] The experiments were performed twice.

Data set [4] deals with BGM-VN. The experiment in a line: Cytotoxicity, MTT assay. The data set is classed as cell-based. Particulars: 24 h incubation. As to the method:
The compounds (20 μL) at various concentrations (400-1.0 μM) were placed in the 96-well plates, incubated with the cultured cells for 24 h under a 5%CO2 atmosphere at 37° C., and then a 3-(4,5-dimethylthiazol-2-yl)-2,5-diphenyltetrazolium bromide (MTT) solution ([…]; 20 μL/well for 3 h) was used to assess mitochondrial viability.
The supernatants were carefully removed and 100 μL of DMSO was added to each well and mixed to solubilize the formazan crystals. The optical density was determined at 570 nm. Cell viability was expressed as the percentage of the control absorbance in the untreated cells after subtracting the appropriate background. Each test was performed in triplicate in at least two different experiments.
In general terms: Formazan colour is commonly taken as a measure of viable cells.

For data set [5], the system named is β-hematin formation. The experiment in a line: Inhibition of β-hematin formation (lipid-catalysed heme crystallization). In kind it is biochemical. As to the method: Briefly, drug stock solutions were prepared in DMSO, used at a final concentration of up to 30 mM A heme stock (10 mM) was made in DMSO and diluted to […] with 100 mM sodium acetate (pH 4.8).
The plates were incubated at 37° C. for 2 h to allow crystallization, followed by the addition of 100 μL of 200 mM sodium bicarbonate (pH 9.1) to solubilize any remaining monomeric heme. After incubation for 30 min at room temperature, the amount of solubilized monomeric heme was determined by measuring the absorbance at 405 nm.
Finally, 20 μL of 1 M sodium hydroxide was added to the plates to dissolve the crystals formed. The absorbance was read at 405 nm to determine the total amount of heme present in each well.
The inhibition of heme crystallization was determined as a function of the amount of monomeric heme that was not crystallized divided by the total amount of heme present in the test mixture. The results are expressed as IC50 values based on the percentage inhibition of β-hematin formation by compounds GIQ, CEQ, PCQ and DAQ. Each test was performed in triplicate in at least two different experiments.

Data set [6] deals with CQ-resistant strains. The settings on record: prior art; cited from earlier work.
For data set [7], the system named is P. falciparum K1. The data set can be described thus: Time course of inhibitory activity, microscopy of synchronized parasites. The data set is classed as cell-based, Plasmodium falciparum. Particulars: 10 times IC50 of 3D7 applied to K1; 0, 12, 24, 36 h. The procedure:
The time course of inhibitory activity of the CQ analogues was also evaluated. The compounds were incubated at a concentration 10 times higher than the IC50 values obtained for the P. falciparum 3D7 sensitive strain with synchronized parasites. Morphological changes were then observed by microscopy after 0, 12, 24 and 36 hours after synchronization (FIG. 3). Parasites sensitive (3D7 strain) and resistant (K1 strain) to CQ were tested in parallel, and the antimalarial CQ was used as a control.

The subject of data set [8] is Indochina I. The settings on record: resistant strain Indochina I; verapamil; cited from earlier work.
[9] abbreviates: 3D7, read-out: IC50 (nM ± SD) P.falciparum 3D7.
Where [10] appears, read: K1, read-out: IC50 (nM ± SD) P.falciparum K1.
The mark [11] stands for this setting: 50 mg/kg orally, daily for three days.
[12] abbreviates: CQ-sensitive strain 3D7, SYBR Green, ± SD, read-out: IC50 (nM ± SD) P.falciparum 3D7.
[13] abbreviates: multiresistant strain K1, SYBR Green, ± SD, read-out: IC50 (nM ± SD) P.falciparum K1.
The mark [14] stands for this setting: CQ 20 mg/kg, daily for three days.

As a reminder, the IC50 is the concentration that inhibits the measured activity by half.

For the molecule `C#CCNc1ccnc2cc(Cl)ccc12` [PCQ], in data set [1] (setting [9]), the IC50 was determined as 377 ± 14 nM. Moreover, the “Selectivity index 3D7” value in data set [1] was 1079. The IC50 in data set [2] (setting [10]) is 405 ± 32 nM. Also, the “Selectivity index K1” value in data set [2] is listed as 1005. Further, in data set [3] (setting [11]), the Survival worked out at 17 ± 8, the “Parasitemia day 5” value is given as 1.04, the “Parasitemia day 7” value was 4.83 and the “Parasitemia day 9” value was 5.75. Besides, in data set [3] (setting [11]), the “Parasitemia day 11” value turned out to be 7.5, the “Parasitemia day 13” value came to 7.0 and the “Parasitemia day 15” value is on record as 34.5. In addition, in data set [3] (50 mg/kg orally), the “Survival of mice compared to the untreated control” value was “not increased”, the “Parasitemia % reduction day 7” value is listed as 10%, the “Parasitemia % reduction day 9” value worked out at 8% and the “Parasitemia % reduction day 11” value was determined as 32%. In addition, in data set [3] (50 mg/kg orally), the “Parasitemia % reduction day 13” value stood at 32% and the “Parasitemia % reduction day 15” value worked out at 0%. For the same molecule, the “Parasitemia % reduction day 5” value in data set [3] (50 mg/kg orally, 50 mg/kg) is 70% and 73%. Besides, the “MLD50 (μM) BGM-VN” value in data set [4] was 407 ± 185 µM.

In the case of `NCCNc1ccnc2cc(Cl)ccc12` [CEQ], the half-inhibitory concentration (IC50) in data set [1] (setting [12]) is 273 ± 12 nM. For the same molecule, in data set [1], the “Selectivity index 3D7” value amounted to 655. Further, the IC50 in data set [2] (setting [13]) is 218 ± 44 nM. Further, in data set [3] (setting [11]), the Survival stood at 26 ± 6, the “Parasitemia day 5” value is 0.00, the “Parasitemia day 7” value is on record as 0.00 and the “Parasitemia day 9” value was 0.00. Also, in data set [3] (setting [11]), the “Parasitemia day 11” value worked out at 0.00, the “Parasitemia day 13” value was found to be 0.57 and the “Parasitemia day 15” value was found to be 4. In data set [3] (50 mg/kg orally), the “Survival of mice compared to the untreated control” value is recorded as “significantly higher”, the “Parasitemia % reduction day 5” value was 100%, the “Parasitemia % reduction day 7” value was 100% and the “Parasitemia % reduction day 9” value came to 100%. Besides, in data set [3] (50 mg/kg orally), the “Parasitemia % reduction day 11” value was found to be 100%, the “Parasitemia % reduction day 13” value worked out at 94% and the “Parasitemia % reduction day 15” value is recorded as 80%. In addition, the “MLD50 (μM) BGM-VN” value in data set [4] is 179 ± 40 µM.

In the case of `CCN(CC)CC#CCNc1ccnc2cc(Cl)ccc12` [DAQ], the IC50 in data set [1] (setting [9]) stood at 46 ± 4 nM. Also, in data set [1], the “Selectivity index 3D7” value came to 32195. In addition, the “Selectivity index (SI) quoted in text” value in data set [1] (strain not stated) is on record as 55.750. Besides, in data set [2], the “Antiplasmodial activity” value is “active” and the “Selectivity index K1” value is given as 29620. For the same molecule, the IC50 in data set [2] (setting [10]) is 50 ± 3 nM. In addition, in data set [3] (setting [11]), the Survival was found to be 28 ± 1, the “Parasitemia day 5” value came to 0.00, the “Parasitemia day 7” value is given as 0.00 and the “Parasitemia day 9” value was 0.00. In addition, in data set [3] (setting [11]), the “Parasitemia day 11” value is 0.00, the “Parasitemia day 13” value is on record as 0.77 and the “Parasitemia day 15” value was 3.67. In data set [3] (50 mg/kg orally), the “Survival of mice compared to the untreated control” value is listed as “significantly higher”, the “Parasitemia % reduction day 5” value amounted to 100%, the “Parasitemia % reduction day 7” value was 100% and the “Parasitemia % reduction day 9” value is 100%. Further, in data set [3] (50 mg/kg orally), the “Parasitemia % reduction day 11” value worked out at 100%, the “Parasitemia % reduction day 13” value amounted to 92% and the “Parasitemia % reduction day 15” value worked out at 82%. For the same molecule, the “MLD50 (μM) BGM-VN” value in data set [4] is 1481 ± 39 µM. Further, the “β-hematin inhibition, comparison” value in data set [5] was “lower than that of CQ”.

As for `CCN(CC)Cc1cc(Nc2ccnc3cc(Cl)ccc23)ccc1O` [AQ], in data set [6], the “Activity against CQ-resistant strains (literature, words)” value is “cross-resistance with CQ”.

For the molecule `O=C(O)CNc1ccnc2cc(Cl)ccc12` [GIQ], the “Antiplasmodial activity” value was “inactive” in data set [1] (3D7, highest dose 10 μM) and “inactive” in data set [2]. Moreover, the IC50 in data set [1] (setting [12]) and in data set [2] (setting [13]) was above 10000 nM each time. The “Selectivity index 3D7” value in data set [1] was “Inactive”. For the same molecule, the “Selectivity index K1” value in data set [2] was “Inactive”. In addition, the “MLD50 (μM) BGM-VN” value in data set [4] is above 1000 µM. In addition, the “β-hematin inhibition, comparison” value in data set [5] was “least potent”.

Regarding `CCN(CC)CCCC(C)Nc1ccnc2cc(Cl)ccc12` (stereo not shown) [CQ, chloroquine, reference compound], the IC50 in data set [1] (setting [9]) is 36 ± 12 nM. Moreover, the IC50 in data set [2] (setting [10]) came to 177 ± 20 nM. For the same molecule, the “Time course / stage of action, morphology” value in data set [7] is listed as “did not block complete parasite development”. Besides, in data set [3] (CQ 20 mg/kg), the “Parasitemia until the last day of evaluation” value was “did not show parasitemia”, the “Survival” value is “survived until the last day of the experiment”, the “Parasitemia % reduction day 5” value was 100% and the “Parasitemia % reduction day 7” value worked out at 100%. Further, in data set [3] (CQ 20 mg/kg), the “Parasitemia % reduction day 9” value worked out at 100%, the “Parasitemia % reduction day 11” value came to 100%, the “Parasitemia % reduction day 13” value turned out to be 100% and the “Parasitemia % reduction day 15” value is 100%. Moreover, in data set [3] (setting [14]), the Survival was above 30, the “Parasitemia day 5” value was determined as 0.00, the “Parasitemia day 7” value came out at 0.00 and the “Parasitemia day 9” value is listed as 0.00. Besides, in data set [3] (setting [14]), the “Parasitemia day 11” value turned out to be 0.00, the “Parasitemia day 13” value turned out to be 0.00 and the “Parasitemia day 15” value is reported as 0.00. In data set [8], the “Improvement of IC50 after PfCRT inhibition” value is reported as 10 ×.

Consider `CCN(CC)CCCNc1ccnc2cc(Cl)ccc12` [AQ-13], for which the “Activity against CQ-resistant strains (literature, words)” value in data set [6] was “shows antimalarial activity”.
